Reference: paper PMC7875557, “Development and optimization of sitagliptin and dapagliflozin loaded oral self-nanoemulsifying formulation against type 2 diabetes mellitus” (Drug Delivery, 2020)

Assays:
[1] = DPPH free radical scavenging assay
Description: For antioxidant activity, DPPH (2, 2-diphenyl-1-picrylhydrazyl) free radical scavenging assay was employed. This method was carried out as previously described by Brand-Williams et al. ([1995]). The method quantifies free radical scavenging capacity of the investigated samples. DPPH is a molecule that contains a stable free radical. In the presence of an antioxidant which is able to donate an electron to DPPH, the change in the absorbance at 517 nm is followed spectrophotometrically (UV mini-1240, Shimadzu, Japan). Various concentrations of […] (10, 50, 100, 500, and 1000 μg/mL) were used. The assay mixture was made up of a total volume of 1 mL, containing 500 μL of the sample, 125 μL of the prepared DPPH, and 375 μL of methanol. As positive control, ascorbic acid was used. The samples were incubated for 30 min at 25 °C, after which the decrease in absorbance was measured at λ = 517 nm. Radical scavenging activity of the samples were calculated using the following equation below: (1) % radical scavenging activity=(Abs control − Abs sample/Abs control) ×100

[2] = Equilibrium solubility (shake flask); assay type: physicochemical; conditions: for Solubility in Water (100%): 100% water
Description: […] The samples were prepared by adding an excess amount of SN and DN to the formulations, which was then thoroughly agitated with a vortex mixer to ensure adequate mixing. Three replicates were taken for each formulation. The samples for the solubility experiments were analyzed using in-house developed UHPLC method by dissolving each of the formulations with an appropriate solvent.

[3] = test system: Diabetic mice (STZ); assay: Anti-diabetic study in streptozotocin-induced diabetic mice; assay type: in vivo, Swiss albino mice; conditions: DN 6 mg/kg, SN 10 mg/kg; for Glucose level 0 h: STZ (60 mg/kg) diabetic mice, before dose; for Glucose level 0 h / Glucose level 2 h: Mean ± SEM, n = 3; for Glucose level decrease / Glucose level 2 h / % Inhibition of glucose level: STZ diabetic mice; for Glucose level decrease: 0 h to 2 h; for Glucose level 2 h / % Inhibition of glucose level: 2 h after dose
Description: Male Swiss albino mice (20–25 g) roughly of same age group were procured from the Experimental Animal Care Center, College of Pharmacy, King Saud University, with the approval Clearance No. KSU-SE—19-105 (20th November 2019) by the Ethical committee. The animals used in this study were kept at 22 °C temperature by maintaining 55% humidity and light/dark (12/12 h) conditions. They were provided free access to Purina chow and drinking water ad libitum. The […] were initially acclimatized for seven days prior to being used for the anti-diabetic studies.
Diabetes was induced overnight in fasted mice by single intraperitoneal (IP) injection of 60 mg/kg of streptozotocin (STZ) that was freshly dissolved in 0.1 M cold citrate buffer at pH 4.5. After 72 h of STZ administration, blood was collected from the animals and plasma glucose levels were examined. Animals that were confirmed diabetic by the elevated plasma glucose levels (>200 mg/dl) were used for the experiment. The animals were then randomly assigned into seven groups of three animals and received the following treatments: Group I: Normal control mice treated with Normal saline; Group II: Diabetic control mice treated with Normal saline; Group III: Diabetic mice treated with thymoquinone 5 mg/kg (IP); Group IV: Diabetic mice treated with DN 6 mg/kg (IP); Group V: Diabetic mice treated with SN 10 mg/kg (IP); Group VI: Diabetic mice treated with DN 6 mg/kg (IP) and SN 10 mg/kg (IP); Group VII: Diabetic mice treated with marketed product Dapazin® 6 mg/kg (IP).

[4] = β-carotene–linoleic acid (bleaching) assay; conditions: 1000 µg
Description: The antioxidant activity of the samples were evaluated using the β-carotene bleaching method described by Velioglu et al. ([1998]) with modifications. One milliliter (1 mL) of a 0.2 mg/mL solution of β -carotene in chloroform was added to flasks containing 0.2 mL of Tween 20 and 0.02 mL of linoleic acid. The chloroform was removed in a rotary evaporator at 40 °C. The resulting mixture was then diluted with 100 mL of distilled water and mixed for approximately 2 min to form an emulsion. Similarly, another mixture was prepared without β-carotene to use as a blank. A control containing 0.2 mL of 80% (v/v) methanol was also used instead of sample. Aliquot of the emulsion (5 mL) was added to 0.2 mL of the sample at 1 mg/mL. As a standard, Rutin (1 mg/mL) was used. The tubes were incubated in a water bath at 40 °C for 2 h. Absorbance was measured at 470 nm at 15 min intervals, using a UV–visible spectrophotometer (UV mini-1240, Shimadzu, Japan) and the antioxidant activity was calculated from the equation below: (2) % of antioxidant activity= (Abs0 − Abst)/(Abs0° − Abst°) ×100 where, Abs0 and Abs0° represented the absorbance values measured at zero time of incubation for sample extract and control, respectively. Abst and Abst° are the absorbance values at t = 120 min for samples and control, respectively.

[5] = In vivo oral bioavailability / pharmacokinetic study; conditions: male, Wister, rat, plasma, 6 mg/kg; rats, after oral administration; read-out: Time to peak plasma levels
Description: Male rats (Wister, 200–220 g) were obtained from Laboratory Animal Center of pharmacy college, KSU. The rats were randomly allocated into two groups, each group consisted of six rats: the representative SNEDDS [F1, BSO/CMCM/CrEL (15/35/50%w/w)] (group A) and marketed drug (group B). The animals were fasted for 12 h prior to the oral administration of SNEDDS of DN (6 mg/kg rat). The experimental procedures were carried out in accordance with the principles of National Institute of Health Guide for the Care and Use of Laboratory Animals (NIH Publications No. 80–23; 1996) as well as the animal facilities guidelines from the Ethical committee of Experimental Animal Care Center, College of Pharmacy, King Saud University (Clearance No. KSU-SE—19-105; 20th November 2019). […]
In vivo animal studies were performed using only DN in the dose and SN was not included due to the different pharmacokinetic features of the SN and DN. […] The concentration of DN in plasma was determined by UHPLC as follow: A 775 μL of methanol was added to 225 μL aliquot of plasma. […] The nonlinear pharmacokinetic parameters such as Cmax, Tmax, and AUC(0–∞) were determined.
The pharmacokinetic assessment was done after oral administration on the basis of DN concentrations in the plasma samples of the rat. […] This was vortexed and transferred to an auto sampler vial to be analyzed in the UHPLC system. […]

[6] = test system: SGLT2; conditions: ref Santos et al., 2017, Wilding et al.; cited from earlier work

O=C1O[C@H]([C@@H](O)CO)C(O)=C1O [Ascorbic acid]
Radical scavenging activity ([1]; 10 µg): 33.7 ± 3.5% | Radical scavenging activity ([1]; 50 µg): 74.1 ± 1.3% | Radical scavenging activity ([1]; 100 µg): 85.6 ± 3.2% | Radical scavenging activity ([1]; 500 µg): 88.7 ± 2.7% | Radical scavenging activity ([1]; 1000 µg): 91.7 ± 3.4%

N[C@@H](CC(=O)N1CCn2c(nnc2C(F)(F)F)C1)Cc1cc(F)c(F)cc1F [Sitagliptin, sitagliptin]
Solubility in Water (100%) [2]: 3.62 ± 0.11 mg/g | Loading of SN in the anhydrous SNEDDS relative to aqueous solubility ([2]; from equilibrium solubility of diluted formulations): > 400% | Glucose level 0 h [3]: 381.33 ± 11.25 mg/dL | Glucose level decrease [3]: 208 mg/dL | Glucose level 2 h [3]: 173.33 ± 7.53 mg/dL | % Inhibition of glucose level ([3]; listed as SN): 54.54% | % Inhibition of glucose level ([3]; listed as SN (Pure)): 54.54↓ %

C[C@@H]1O[C@@H](OC[C@H]2O[C@@H](Oc3c(-c4ccc(O)c(O)c4)oc4cc(O)cc(O)c4c3=O)[C@H](O)[C@@H](O)[C@@H]2O)[C@H](O)[C@H](O)[C@H]1O [Rutin]
Total antioxidant activity [4]: 93.1 ± 1.2%

CCOc1ccc(Cc2cc([C@@H]3O[C@H](CO)[C@@H](O)[C@H](O)[C@H]3O)ccc2Cl)cc1 [Dapagliflozin, dapagliflozin]
Solubility in Water (100%) [2]: 1.48 ± 0.14 mg/g | Glucose level 0 h [3]: 362.00 ± 4.93 mg/dL | Glucose level decrease [3]: 143 mg/dL | Glucose level 2 h [3]: 219.00 ± 7.57 mg/dL | % Inhibition of glucose level ([3]; listed as DN): 39.50% | % Inhibition of glucose level ([3]; listed as DN (pure)): 39.50↓ % | Tmax [5]: ≤ 4 h | Selectivity for SGLT2 over SGLT1 [6]: 1200 fold
